{"source": "patent US20260069610A1", "about": "“INHIBITION OF EFFEROCYTOSIS AS A TREATMENT TO PREVENT BONE LOSS AND INCREASE BONE DENSITY AND STRENGTH” (University of Rochester, priority 2022, published 2026)", "key": {"[1]": {"test_system": "ST2 cells", "assay": "Initial toxicity studies in ST2 cells", "format": "cell-based, murine", "conditions": "ST2 cells (stromal cell line)"}, "[2]": {"test_system": "primary human MSCs", "assay": "Initial toxicity studies in primary human MSCs", "format": "cell-based"}, "[3]": {"test_system": "ST2 cells", "assay": "In vitro efferocytosis assay, ST2 cells with end stage neutrophils, flow cytometry", "protocol": "ST2 cells, a bone marrow-derived mesenchymal stromal cell line, were plated at 2×10^4 per cm^2 in αMEM without ascorbic acid (Gibco)+10% FBS+1% pen-strep and incubated in 21% oxygen at 37° C. until 80% confluency. […] End-stage neutrophils were washed with PBS and fluorescently labeled with 20 nM efluro670 (ThermoFischer) according to manufacturer's instructions. Targets (neutrophils or apoptotic lymphocytes) were given in excess (1 MSC: 10 Target) to plated MSCs and incubated for up to 24 h. Cells were then washed 3× with PBS, imaged, and collected for flow cytometry analysis."}, "[4]": {"test_system": "macrophages", "conditions": "targeting via clodronate; cited from earlier work"}, "[5]": {"test_system": "primary human MSCs (hMSCs)", "assay": "Efferocytosis assay with pharmacological inhibition of mitochondrial fission, hMSCs", "format": "cell-based", "conditions": "pre-treated with 25 μM Mdivi for 1 h, end stage PMN for 24 h", "procedure": "(§1) FIGS. 6A, 6B, and 6C show quantification via flow cytometry of viability, end stage neutrophil (PMNs) engulfment, and efficiency (mean fluorescent intensity, MFI) of hMSCs pre-treated with 25 μM Mdivi for 1 h and then given end stage PMN for 24 h. […] N=3, Mean±SD shown on graphs ** p<0.01, *** p<0.001, (1-test or ANOVA).\nPrimary human MSCs (hMSCs) cells (Lonza) were plated at 2×10^4 per cm^2 in αMEM+10% FBS+1% pen-strep and incubated in 5% O2/5% CO2/37° C. until 80% confluent. Neutrophils were isolated from human peripheral blood via Mono-Poly resolving medium (MP Biomedicals, Inc) according to manufacturer's instructions and incubated in RPMI+10% FBS+10 mM HEPES overnight (18-20 h) at 37° C./5% CO2 as previously described (Casanova-Acebes M, et al. Cell 2013; 153:1025-35). hMSCs were treated with 25 μM Mdivi for 1 h prior to giving 20 nM efluro670 (ThermoFischer) stained end-stage neutrophils in excess (1:10) for 24 h. Cells were then washed 3× with PBS, imaged, and collected for flow cytometry analysis.\nAll samples were run on a LSRII flow cytometer: 3 lasers, 355 nm, 488 nm, and 633 nm (BD Biosciences). Analysis was performed using FlowJo version 10.8 (Tree Star). Sorting was done on a FACSAria II with 405-, 488-, 532-, and 633 nm lasers (BD Biosciences). All flow cytometry equipment is housed and quality controlled within the URMC Flow Cytometry core."}, "[6]": {"test_system": "primary human MSCs (hMSCs)", "assay": "Alkaline phosphatase measurement (osteoblastic differentiation) with inhibition of mitochondrial fission, hMSCs", "format": "cell-based", "conditions": "for osteoblastic differentiation potential (alkaline phosphatase) of hMSCs: co-treatment with 25 μM Mdivi and PMN", "procedure": "as §1\nCells were washed with PBS 3× and then fixed with formalin for 30 min at room temperature (RT). Following fixation, the cells were washed with water 3× and left to sit for 15 min at RT while preparing alkaline phosphatase (AP) staining. To prepare the AP stain, 5 mg Naphthol AS MX-PO4 was dissolved in 200 μL of N,N-dimethylformamide (DMF), 25 mL 0.2 M Tris pH 8.3, and 25 mL water. Red Violet LB salt (30 mg) was added to solution, vortexed, and filter through 45 μm filter. After incubation with AP stain for 45 min RT, cells were washed with water 3× and then stained with 2.5% silver nitrate for 30 min RT in a ventilated area, then washed with water and air dried. All plates were imaged via light microscopy and quantified for osteoblastic formation using ImageJ software.\nCells that performed efferocytosis in the presence or absence of Mdivi, were washed and stained for AP as described above. Wells were photographed, and images were analyzed using ImageJ for staining intensity."}}, "note": "Entries after “also recorded” stand apart in the source; their conditions may differ.", "data": [{"compound": "CN1CCN(Cc2ccc(Nc3ncc(Cl)c(Nc4ccccc4S(=O)(=O)N(C)C)n3)cc2)CC1", "note": "[TP0903]", "values": [{"measurement": "toxicity", "setting": "[1]", "result": "low toxicity"}, {"measurement": "toxicity", "setting": "[2]", "result": "low toxicity"}, {"measurement": "efferocytosis by ST2 cells", "setting": "[3]; 3 and 24 hrs, pre treated with 100 nM TP0903 for 1 hr, excess (5 PMN: 1 MSC) end stage hPMNs", "result": "blocks efferocytosis for a short duration"}, {"measurement": "neutrophil uptake by MSCs", "setting": "[3]; 3 hours after neutrophil addition, flow cytometry", "result": "significantly reduced"}]}, {"compound": "O=P(O)(O)C(Cl)(Cl)P(=O)(O)O", "note": "[clodronate]", "values": [{"measurement": "bone loss", "setting": "[4]", "result": "did not result in bone loss"}]}, {"compound": "COc1cc(-n2c(S)nc3ccccc3c2=O)c(Cl)cc1Cl", "note": "[Mdivi]", "values": [{"measurement": "efficiency (MFI) of efferocytosis by hMSCs", "setting": "[5]", "result": "decreased"}, {"measurement": "overall rate of efferocytosis (end stage PMN engulfment) by hMSCs", "setting": "[5]", "result": "decreased; also recorded: decreases efferocytic activity in MSCs"}, {"measurement": "viability of hMSCs", "setting": "[5]", "result": "without impacting their viability"}, {"measurement": "overall rate of efferocytosis (end stage PMN engulfment) by hMSCs", "setting": "[5]; listed as MDivi", "result": "decreases human MSC (hMSC) efferocytosis"}, {"measurement": "osteoblastic differentiation (alkaline phosphatase) of hMSCs", "setting": "[6]; Mdivi treatment in the absence of PMN", "result": "trending increase in osteoblastic differentiation; also recorded: increases osteoblastic differentiation independent of efferocytic activity"}, {"measurement": "osteoblastic differentiation potential (alkaline phosphatase) of hMSCs", "setting": "[6]", "result": "rescued the osteoblastic differentiation potential; also recorded: rescues the defect in osteoblastic differentiation"}, {"measurement": "osteoblastic differentiation potential (alkaline phosphatase) of hMSCs", "setting": "[6]; listed as MDivi", "result": "restores MSC osteoblastic differentiation"}]}]}
